Values after ≈ are worked out from the molar mass of the structure shown. Values joined by “and” are separate entries in the source; they are usually repeats but may differ in a detail not shown here. Equal values may be shown once. Read-outs that look alike come from different tables or passages of the source.
Assays:
[1] = biological target: AAC(3)-Ia (Acinetobacter baumannii, UniProt D7R512); assay: Isothermal titration calorimetry; type: binding
Procedure: (§1) To accurately measure protein ligand interactions, the concentration of our proteins of interest was measured spectrophotometrically using the NanoDrop OneC Spectrometer (Thermo Scientific). ITC experiments were performed on a MicroCal iTC 200 (General Electric) at 25 °C with stirring at 750 rpm. Unique buffer solutions were used for each enzyme. AAC(3)-Ia was prepared in 50 mM HEPES, pH 7, and 150 mM NaCl. AAC(3)-IIIa was prepared in 120 mM Tris, pH 7.5, and 150 mM NaCl. AAC(3)-XIa was prepared in 20 mM Tris, pH 7.5, and 150 mM NaCl. The cell contained 550 μM AAC(3)-Ia, 350 μM AAC(3)-IIIa, or 450 μM AAC(3)-XIa. All experiments also contained 5000 μM of coenzyme A trilithium salt in the cell. […] In all ITC experiments, aminoglycosides were prepared in the same buffering solution as the target protein. The ligands were injected 29 times ([…] per injection) with a 180 s interval between injections. Results were analyzed using ORIGIN software version 7E (MicroCal) using the molecular weight of a single protomer of each protein and fitted with a two-set of sites binding model (Supplementary Fig. 5). Data analysis was performed in Microsoft Excel and GraphPad5 software. One-way ANOVA and Tukey’s multiple comparison tests were used to determine the statistical significance of binding affinities.

[2] = biological target: AAC(3)-XIa (Corynebacterium striatum, UniProt A0ABX7DED9); assay: Isothermal titration calorimetry; type: binding; details: 25 °C, with coenzyme A, n = 3
Procedure: as §1

[3] = biological target: T1, AAC(3)-IIIa (Pseudomonas aeruginosa, UniProt P29808); assay: Isothermal titration calorimetry; type: binding, P. aeruginosa
T1 construct: 6xHis-tag (thrombin-cleavable, pET15b) (N); made in house; host or cells: LOBSTR E. coli
Procedure: as §1

[4] = test system: BL21(DE3) E. coli transformed with pUCP18 vector expressing AAC(3)-IIIa; assay: Antibiotic susceptibility testing, endpoint MIC assay; type: cell-based; details: Escherichia coli, 20 h, read-out: Endpoint minimum inhibitory concentration (MIC)
Procedure: (§2) Ten milliliters of cultures of LB containing […] ampicillin were inoculated from glycerol stocks of transformed BL21(DE3) E. coli containing genes expressing the proteins of interest in pUCP18 vectors. Experiments were performed using 6xHis-tagged fusion-proteins, as well as untagged wild-type proteins. These cultures were incubated at 37 °C with 200 rpm agitation for 16 h. Turbidity was measured through OD600 with a NanoDrop OneC Spectrometer (Thermo Scientific). From the initial cultures, secondary 10 mL cultures were prepared with OD600 values of 0.1. These cultures were grown until OD600 values of 0.4–0.6 were reached and diluted to bring all cultures to the same OD600. Cultures were induced with 1 mM Isopropyl β-D-1-thiogalactopyranoside and incubated for 4 h. Cultures were diluted to 1 × 10^6 cells mL^−1. Two microliters of culture was added to 198 μL of LB with an appropriate aminoglycoside titration concentration. The formulated 96-well culture plate (Sarstedt) was incubated at 37 °C with 120 rpm orbital agitation. The remainder of the bacterial culture was immediately lysed and processed for Western blotting. OD600 was measured after 20 h using the Molecular Devices Spectra MAX 190 plate reader.

[5] = test system: BL21(DE3) E. coli transformed with pUCP18 vector expressing AAC(3)-Ia; assay: as above; type: cell-based; details: Escherichia coli, 20 h, read-out: Endpoint minimum inhibitory concentration (MIC)
Procedure: as §2

[6] = test system: BL21(DE3) E. coli transformed with pUCP18 vector expressing AAC(3)-XIa; assay: as above; type: cell-based; details: Escherichia coli, 20 h, read-out: Endpoint minimum inhibitory concentration (MIC)
Procedure: as §2

[7] = test system: empty pUCP18 vector transformed E. coli; assay: as above; type: cell-based; details: Escherichia coli; empty pUCP18 vector control E. coli; after 20 h of growth; read-out: Endpoint minimum inhibitory concentration (MIC)
Procedure: as §2

[8] = test system: BL21(DE3) E. coli transformed with pUCP18 vector expressing untagged AAC(3)-IIIa; type: cell-based; details: E. coli expressing AAC(3)-IIIa
Procedure: (§3) Ten milliliters of LB containing […] ampicillin were inoculated from glycerol stocks of transformed BL21(DE3) E. coli containing genes expressing the proteins of interest in pUCP18 vectors. These cultures were incubated at 37 °C with 200 rpm agitation for 16 h. Turbidity was measured through OD600 with a NanoDrop OneC Spectrometer (Thermo Scientific). From the initial cultures, secondary 10 mL cultures were prepared with OD600 values of 0.1. These cultures were grown until OD600 values of 0.4–0.6 were reached and diluted to bring all cultures to the same OD600. Cultures were induced with 1 mM Isopropyl β-D-1-thiogalactopyranoside and incubated for 4 h. Two microliters of culture was added to 198 μL of LB with an appropriate aminoglycoside titration concentration. Each titration point was repeated n = 4 times. The formulated 96-well culture plate (Sarstedt) had OD600 measured on a 20-min interval over 17 h using a BioTek Cytation 5 Cell Imaging Multimode Reader, incubating at 37 °C with 282 cpm orbital agitation. Experiments were repeated with fresh cultures on separate days to ensure consistent trends. Data was analyzed in Microsoft Excel and GraphPad5. The remainder of the culture immediately had its RNA isolated for qPCR experiments.

[9] = test system: BL21(DE3) E. coli transformed with pUCP18 vector expressing untagged AAC(3)-Ia; type: cell-based; details: E. coli expressing AAC(3)-Ia
Procedure: as §3

[10] = test system: BL21(DE3) E. coli transformed with pUCP18 vector expressing untagged AAC(3)-XIa; type: cell-based; details: E. coli expressing AAC(3)-XIa
Procedure: as §3

[11] = test system: CNC(C)C1CCC(N)C(OC2C(N)CC(N)C(OC3OCC(C)(O)C(NC)C3O)C2O)O1; assay: purified protein, by the assay type; details: other: AAC(3)-IIIa, 22 °C, pH 6.5, 150 μM acetyl coenzyme A, n = 3
Procedure: The acetylation of aminoglycosides was measured by a coupled assay, where the formation of pyridine-4-thiolate can be detected at 324 nm[42],[43]. The kinetic assays were performed at room temperature (22 °C) in quartz cuvettes (pathlength 1 cm) at a final volume of 0.8 mL. Reaction solution contained 25 mM MOPS pH 6.5, 100 mM NaCl, 500 μM 4,4’-dipyridyl disulfide (Aldrithiol™-4, Sigma-Aldrich), 150 μM acetyl coenzyme A, and aminoglycoside concentrations varying from 1.25 to 160 μM. […] All reactions were run in triplicate, and data analysis was performed using GraphPad5 software. One-way ANOVA and Tukey’s multiple comparison tests were used to determine the statistical significance of catalytic efficiencies.

[12] = biological target: AAC(3)-Ia from Acinetobacter baumannii (Acinetobacter baumannii); assay: crystal structure; AAC(3)-Ia with CoASH, with or without sisomicin; sitting-drop vapor diffusion at 22 °C, 0.1 M Tris pH 8.5, 0.05 M MgCl2, 20% EtOH, 35% PEG 400; one protomer per asymmetric unit, dimer by crystallographic symmetry
[13] = test system: CNC(C)C1CCC(N)C(OC2C(N)CC(N)C(OC3OCC(C)(O)C(NC)C3O)C2O)O1; assay: Michaelis-Menten kinetics, coupled acetylation assay (pyridine-4-thiolate at 324 nm); type: biochemical, Corynebacterium striatum; details: other: AAC(3)-XIa, 22 °C, pH 6.5, 150 μM acetyl coenzyme A, n = 3
Procedure: (§4) The acetylation of aminoglycosides was measured by a coupled assay, where the formation of pyridine-4-thiolate can be detected at 324 nm[42],[43]. The kinetic assays were performed at room temperature (22 °C) in quartz cuvettes (pathlength 1 cm) at a final volume of 0.8 mL. Reaction solution contained 25 mM MOPS pH 6.5, 100 mM NaCl, 500 μM 4,4’-dipyridyl disulfide (Aldrithiol™-4, Sigma-Aldrich), 150 μM acetyl coenzyme A, and aminoglycoside concentrations varying from 1.25 to 160 μM. The reaction was initialized by the addition of AAC(3)-Ia to a final concentration of 0.2 μM, AAC(3)-XIa to a final concentration of 1.94 μM, or AAC(3)-IIIa to a final concentration of 0.4 μM, where UV absorbance was measured over 5 min. All reactions were run in triplicate, and data analysis was performed using GraphPad5 software. One-way ANOVA and Tukey’s multiple comparison tests were used to determine the statistical significance of catalytic efficiencies.

[14] = test system: CN[C@@H]1[C@@H](O)[C@@H](O[C@@H]2[C@@H](O)[C@H](O[C@H]3OC(CN)=CC[C@H]3N)[C@@H](N)C[C@H]2N)OC[C@]1(C)O; assay: as above; type: biochemical, Corynebacterium striatum; details: other: AAC(3)-XIa, 22 °C, pH 6.5, 150 μM acetyl coenzyme A, n = 3
Procedure: as §4

[15] = biological target: AAC(3)-XIa from Corynebacterium striatum (Corynebacterium striatum); assay: crystal structure; AAC(3)-XIa partial-apo, with AcCoA, or with CoASH/AcNHCoA and an aminoglycoside; sitting-drop vapor diffusion at 22 °C, 0.1 M trisodium acetate pH 4.6, 10–30% MPD, 0–24% PEG 200; both protomers of the dimer in the asymmetric unit
[16] = AAC(3)-Ia, first set of sites, 25 °C, with coenzyme A, n = 3
[17] = AAC(3)-Ia, second set of sites, 25 °C, with coenzyme A, n = 3
[18] = AAC(3)-XIa, second set of sites
[19] = first set of sites, 25 °C, with coenzyme A, n = 3
[20] = second set of sites, 25 °C, with coenzyme A, n = 3
[21] = 6 μg mL^−1 sisomicin, 3 μg mL^−1 gentamicin

## CNC(C)C1CCC(N)C(OC2C(N)CC(N)C(OC3OCC(C)(O)C(NC)C3O)C2O)O1 (centres unmarked) [Gentamicin, gentamicin]
[1]; [16]
  TΔS: -0.808 ± 0.343 kcal/mol
  ΔG: -6.52 ± 0.418 kcal/mol
  ΔH: -7.33 ± 0.238 kcal/mol
[1]; AAC(3)-Ia, first set of sites, two-set of sites model, 25 °C, with coenzyme A, n = 3
  N (sites): 0.49 ± 0.02 sites
[1]; [17]
  N2 (sites): 0.57 ± 0.02 sites
  TΔS 2: 4.24 ± 0.08 kcal/mol
  ΔG 2: -6.3 ± 0.112 kcal/mol
  ΔH 2: -2.06 ± 0.08 kcal/mol
[1]; Kd2, AAC(3)-Ia, second set of sites, 25 °C, with coenzyme A, n = 3
  Kd: 23.8 ± 0.3 µM
[1]; Kd, AAC(3)-Ia, first set of sites, two-set of sites model, 25 °C, with coenzyme A, n = 3
  Kd: 17.1 ± 3.2 µM
[1]; Kd, AAC(3)-Ia, individual replicates, raw data behind Fig. 6
  Kd: 23.5 µM and 13.4 µM and 14.4 µM
[2]; AAC(3)-XIa, first set of sites
  TΔS: -1.38 ± 0.171 kcal/mol
  ΔG: -5.38 ± 2.88 kcal/mol
  ΔH: -6.77 ± 2.87 kcal/mol
[2]; AAC(3)-XIa, first set of sites, two-set of sites model
  N (sites): 0.28 ± 0.06 sites
[2]; [18]
  N2 (sites): 0.31 ± 0.05 sites
  TΔS 2: -2.916 ± 1.036 kcal/mol
  ΔG 2: -7.042 ± 1.18 kcal/mol
  ΔH 2: -9.958 ± 0.567 kcal/mol
[2]; Kd2, AAC(3)-XIa, second set of sites
  Kd: 8.5 ± 5.5 µM
[2]; Kd, AAC(3)-XIa, first set of sites, two-set of sites model
  Kd: 6.1 ± 1.8 µM
[3]; [19]
  TΔS: 3.6 ± 0.053 kcal/mol
  ΔG: -6.94 ± 0.077 kcal/mol
  ΔH: -3.34 ± 0.056 kcal/mol
[3]; first set of sites, two-set of sites model, 25 °C, with coenzyme A, n = 3
  N (sites): 0.63 ± 0.01 sites
[3]; first set of sites, two-set of sites model, 25 °C, with coenzyme A, n = 3, read-out: Kd
  Kd: 8.3 ± 0.2 µM
[3]; individual replicates, raw data behind Fig. 6, read-out: Kd
  Kd: 8 µM and 8.13 µM and 8.7 µM
[3]; [20]
  N2 (sites): 0.63 ± 0.01 sites
  TΔS 2: 5.24 ± 0.043 kcal/mol
  ΔG 2: -6.69 ± 0.077 kcal/mol
  ΔH 2: -1.46 ± 0.063 kcal/mol
[3]; second set of sites, 25 °C, with coenzyme A, n = 3, read-out: Kd2
  Kd: 12.4 ± 0.5 µM
[4]
  MIC: 12 µg/mL (≈ 25.1 µM)
[5]
  MIC: 6 µg/mL (≈ 12.6 µM)
[6]
  MIC: 12 µg/mL (≈ 25.1 µM)
[7]
  MIC: 6 µg/mL (≈ 12.6 µM)
[8]; [21]
  Level of resistance relative to empty vector control (OD600 growth curve): greater level of resistance than the empty vector control
[8]; 12 μg mL^−1 antibiotic, 17 h
  Growth (OD600 growth curve): none of the strains of transformed E. coli were able to grow at all
[9]; 12 μg mL^−1 antibiotic, 17 h
  Growth (OD600 growth curve): none of the strains of transformed E. coli were able to grow at all
[9]; all concentrations tested
  Level of resistance relative to empty vector control (OD600 growth curve): unable to outperform the empty vector control in any experiments
[10]; [21]
  Level of resistance relative to empty vector control (OD600 growth curve): greater level of resistance than the empty vector control
[10]; 12 μg mL^−1 antibiotic, 17 h
  Growth (OD600 growth curve): none of the strains of transformed E. coli were able to grow at all

## AAC(3)-IIIa (Pseudomonas aeruginosa)
[11]
  Km: 13 ± 4 µM
  kcat: 36 ± 5 s⁻¹
  kcat/Km: 2.7e+06 ± 1.1e+06 M⁻¹ s⁻¹

## AAC(3)-Ia from Acinetobacter baumannii (enzyme)
[12]
  stoichiometry N: 2

## AAC(3)-XIa (Corynebacterium striatum)
[13]
  Km: 0.8 ± 0.2 µM
  kcat: 0.2 ± 0.003 s⁻¹
  kcat/Km: 200000 ± 40000 M⁻¹ s⁻¹
[14]
  Km: 6.8 ± 0.7 µM
  kcat: 0.4 ± 0.01 s⁻¹
  kcat/Km: 60000 ± 10000 M⁻¹ s⁻¹

## AAC(3)-XIa from Corynebacterium striatum (enzyme)
[15]
  stoichiometry N: 2
